Here are results for 13 molecules from ChEMBL document CHEMBL4840355, “Antitumor and toxicity study of mitochondria-targeted triptolide derivatives using triphenylphosphine (TPP+) as a carrier” (Bioorg Med Chem, 2021).

Where only a bound is given, the exact number is not on record here.

One experiment concerns PC-3. Put plainly: Cytotoxicity against human PC-3 cells assessed as inhibition of cell proliferation measured after 48 hrs by MTT assay. Format: functional, cell-based. The following applies: PC-3, 48 h. On the technique in general: Tetrazolium assays rely on reduction of a dye to a coloured formazan, in cell work by metabolically active cells.
The next experiment relates to MCF7. Put plainly: Cytotoxicity against human MCF7 cells assessed as inhibition of cell proliferation measured after 48 hrs by MTT assay. The class given is functional, cell-based. The following applies: MCF7, 48 h.
The next experiment has as its system PANC-1. The experiment can be described thus: Cytotoxicity against human PANC-1 cells assessed as inhibition of cell proliferation measured after 48 hrs by MTT assay. The following applies: PANC-1, 48 h. The class given is functional, cell-based.
Another experiment relates to HeLa. Put plainly: Cytotoxicity against human HeLa cells assessed as inhibition of cell proliferation measured after 48 hrs by MTT assay. Format: functional, cell-based.
Experiment [1] is described as follows: Cytotoxicity against human HBE cells assessed as inhibition of cell proliferation measured after 48 hrs by MTT assay. Format: cell-based.
The subject of the next experiment is NCI-H1299. Put plainly: Cytotoxicity against human NCI-H1299 cells assessed as inhibition of cell proliferation measured after 48 hrs by MTT assay. Format: functional, cell-based. The following applies: NCI-H1299, 48 h.
Experiment [2] in a line: Cytotoxicity against human A549/DDP cells assessed as inhibition of cell proliferation measured after 48 hrs by MTT assay. The class given is functional, cell-based.
A further experiment relates to HepG2. The experiment can be described thus: Cytotoxicity against human HepG2 cells assessed as inhibition of cell proliferation measured after 48 hrs by MTT assay. The class given is functional, cell-based. Conditions: HepG2, 48 h.
A further experiment has as its system L02. Put plainly: Cytotoxicity against human HL7702 cells assessed as inhibition of cell proliferation measured after 48 hrs by MTT assay. The following applies: L02, 48 h. The class given is cell-based.
The next experiment relates to NCI-H1975. Put plainly: Cytotoxicity against human NCI-H1975 cells assessed as inhibition of cell proliferation measured after 48 hrs by MTT assay. The class given is functional, cell-based. The following applies: NCI-H1975, 48 h.

For orientation: IC50 means the concentration at which inhibition is half-maximal. In the case of `CC(C)[C@]12O[C@H]1[C@@H]1O[C@]13[C@]1(O[C@H]1C[C@H]1C4=C(CC[C@@]13C)C(=O)OC4)[C@@H]2OC(=O)CCCCBr`, the IC50 came out at 189 nM with PC-3; 384 nM in the experiment with MCF7; 1220 nM in the experiment with PANC-1; 719 nM in the experiment with HeLa; 266 nM in experiment [1]; 232 nM in the experiment with NCI-H1299. Moreover, the IC50 in experiment [2] is over 10000 nM; in the experiment with HepG2, 231 nM; in the experiment with L02 it was 84 nM; in the experiment on NCI-H1975, 163 nM.
As to `CCCCCCCCCCC(=O)O[C@@H]1[C@@]2(C(C)C)O[C@H]2[C@@H]2O[C@]23[C@]12O[C@H]2C[C@H]1C2=C(CC[C@@]13C)C(=O)OC2`, the IC50 with PC-3 was 1260 nM; with MCF7, 471 nM; in the experiment with PANC-1, 320 nM; in the experiment on HeLa, 473 nM; in [1], 153 nM; in the experiment with NCI-H1299, 333 nM. Besides, the IC50 is over 10000 nM in experiment [2], 292 nM with HepG2, 188 nM in the experiment on L02 and 95 nM in the experiment with NCI-H1975.
On to `CCCCCCCC(=O)O[C@@H]1[C@@]2(C(C)C)O[C@H]2[C@@H]2O[C@]23[C@]12O[C@H]2C[C@H]1C2=C(CC[C@@]13C)C(=O)OC2`, for which the 50% inhibitory concentration (IC50) is 170 nM in the experiment with PC-3; 554 nM with MCF7; 137 nM in the experiment on PANC-1; 449 nM in the experiment on HeLa; 141 nM in experiment [1]; 194 nM with NCI-H1299. In addition, the IC50 was over 10000 nM in experiment [2], 111 nM with HepG2, 63 nM in the experiment on L02 and 152 nM with NCI-H1975.
`CCCCCC(=O)O[C@@H]1[C@@]2(C(C)C)O[C@H]2[C@@H]2O[C@]23[C@]12O[C@H]2C[C@H]1C2=C(CC[C@@]13C)C(=O)OC2`: the IC50 worked out at 157 nM with PC-3; 644 nM in the experiment on MCF7; 86 nM in the experiment on PANC-1; 340 nM in the experiment on HeLa; 101 nM in experiment [1]; 216 nM in the experiment with NCI-H1299. Further, the IC50 in experiment [2] was over 10000 nM; in the experiment on HepG2, 74 nM; in the experiment on L02, 153 nM; in the experiment on NCI-H1975 it was 81 nM.
For the molecule `CCCCC(=O)O[C@@H]1[C@@]2(C(C)C)O[C@H]2[C@@H]2O[C@]23[C@]12O[C@H]2C[C@H]1C2=C(CC[C@@]13C)C(=O)OC2`, the IC50 with PC-3 was 985 nM; with MCF7, 1690 nM; with PANC-1, 140 nM; with HeLa, 809 nM; in experiment [1] it was 327 nM; with NCI-H1299 it was 505 nM. In addition, the IC50 was over 10000 nM in experiment [2], 489 nM in the experiment on HepG2, 317 nM with L02 and 525 nM in the experiment on NCI-H1975.
`CC(C)[C@]12O[C@H]1[C@@H]1O[C@]13[C@]1(O[C@H]1C[C@H]1C4=C(CC[C@@]13C)C(=O)OC4)[C@@H]2OC(=O)CCCCCCCBr`: the IC50 in the experiment with PC-3 came out at 163 nM; with MCF7, 300 nM; in the experiment on PANC-1, 137 nM; in the experiment with HeLa, 265 nM; in experiment [1], 132 nM; in the experiment with NCI-H1299, 89 nM. The IC50 in [2] is over 10000 nM; in the experiment on HepG2, 138 nM; with L02 it was 88 nM; in the experiment with NCI-H1975, 36 nM.
With `CC(C)[C@]12O[C@H]1[C@@H]1O[C@]13[C@]1(O[C@H]1C[C@H]1C4=C(CC[C@@]13C)C(=O)OC4)[C@@H]2OC(=O)CCCCCCBr`, the IC50 was 42 nM in the experiment on PC-3; 92 nM in the experiment with MCF7; 211 nM with PANC-1; 252 nM in the experiment with HeLa; 116 nM in experiment [1]; 89 nM in the experiment with NCI-H1299. The IC50 is over 10000 nM in experiment [2], 65 nM with HepG2, 75 nM in the experiment with L02 and 98 nM in the experiment on NCI-H1975.
Consider `CC(C)[C@]12O[C@H]1[C@@H]1O[C@]13[C@]1(O[C@H]1C[C@H]1C4=C(CC[C@@]13C)C(=O)OC4)[C@@H]2OC(=O)CCCCCCC[P+](c1ccccc1)(c1ccccc1)c1ccccc1`, for which the IC50 in the experiment on PC-3 is 163 nM; in the experiment with MCF7, 312 nM; in the experiment on PANC-1 it was 165 nM; in the experiment on HeLa it was 331 nM; in [1] it was 123 nM; with NCI-H1299, 202 nM. Also, the IC50 is over 10000 nM in experiment [2], 60 nM with HepG2, 127 nM in the experiment with L02 and 190 nM with NCI-H1975.
As to `CC(C)[C@]12O[C@H]1[C@@H]1O[C@]13[C@]1(O[C@H]1C[C@H]1C4=C(CC[C@@]13C)C(=O)OC4)[C@@H]2OC(=O)CCCCCBr`, the IC50 came out at 79 nM in the experiment with PC-3; 363 nM with MCF7; 387 nM in the experiment on PANC-1; 386 nM with HeLa; 170 nM in [1]; 116 nM in the experiment with NCI-H1299. Moreover, the IC50 was over 10000 nM in experiment [2], 147 nM in the experiment on HepG2, 85 nM with L02 and 208 nM with NCI-H1975.
Turning to `CC(C)[C@]12O[C@H]1[C@@H]1O[C@]13[C@]1(O[C@H]1C[C@H]1C4=C(CC[C@@]13C)C(=O)OC4)[C@@H]2OC(=O)CCCCCCCCCC[P+](c1ccccc1)(c1ccccc1)c1ccccc1`, the IC50 in the experiment on PC-3 amounted to 149 nM; in the experiment on MCF7, 192 nM; with PANC-1, 186 nM; in the experiment on HeLa, 617 nM; in experiment [1], 212 nM; with NCI-H1299, 381 nM. Also, the IC50 in [2] worked out at 1020 nM; in the experiment on HepG2, 355 nM; in the experiment on L02 it was 415 nM; in the experiment on NCI-H1975 it was 265 nM.
For the molecule `CC(C)[C@]12O[C@H]1[C@@H]1O[C@]13[C@]1(O[C@H]1C[C@H]1C4=C(CC[C@@]13C)C(=O)OC4)[C@@H]2OC(=O)CCCCCCCCCCBr`, the IC50 in the experiment on PC-3 came out at 814 nM; in the experiment with MCF7, 426 nM; in the experiment on PANC-1, 366 nM; in the experiment with HeLa it was 1080 nM; in [1], 479 nM; in the experiment on NCI-H1299, 557 nM. In addition, the IC50 in experiment [2] was over 10000 nM; in the experiment with HepG2 it was 625 nM; in the experiment with L02 it was 227 nM; with NCI-H1975, 381 nM.
For `CCCCCCC(=O)O[C@@H]1[C@@]2(C(C)C)O[C@H]2[C@@H]2O[C@]23[C@]12O[C@H]2C[C@H]1C2=C(CC[C@@]13C)C(=O)OC2`, the IC50 was 189 nM in the experiment on PC-3; 213 nM in the experiment with MCF7; 169 nM in the experiment with PANC-1; 242 nM in the experiment with HeLa; 119 nM in [1]; 134 nM in the experiment with NCI-H1299. For the same molecule, the IC50 in [2] is over 10000 nM; with HepG2 it was 52 nM; in the experiment on L02 it was 42 nM; with NCI-H1975, 82 nM.
In the case of `CC(C)[C@]12O[C@H]1[C@@H]1O[C@]13[C@]1(O[C@H]1C[C@H]1C4=C(CC[C@@]13C)C(=O)OC4)[C@@H]2OC(=O)CCCCCC[P+](c1ccccc1)(c1ccccc1)c1ccccc1`, the IC50 is 145 nM in the experiment with PC-3; 316 nM in the experiment on MCF7; 239 nM in the experiment on PANC-1; 269 nM in the experiment on HeLa; 136 nM in experiment [1]; 242 nM in the experiment with NCI-H1299. In addition, the IC50 in [2] is over 10000 nM; in the experiment with HepG2 it was 135 nM; with L02, 319 nM; in the experiment with NCI-H1975, 145 nM.
